Molecular target: T1, Sm2OGD3 (Salvia miltiorrhiza, UniProt A0A8K1XH31)
T1 construct: gene TIIAS; full-length ORF (1119 nt, 373 aa printed) in pET-30a, E. coli BL21(DE3), crude extract
Assay: UPLC / LC-MS product assay, crude recombinant E. coli extract, initial rates
Format: biochemical
Conditions: 2-oxoglutarate, ferrous sulfate, L-ascorbate; pH 8.0, 30 °C

T1 sequence (A0A8K1XH31 entry or part of it): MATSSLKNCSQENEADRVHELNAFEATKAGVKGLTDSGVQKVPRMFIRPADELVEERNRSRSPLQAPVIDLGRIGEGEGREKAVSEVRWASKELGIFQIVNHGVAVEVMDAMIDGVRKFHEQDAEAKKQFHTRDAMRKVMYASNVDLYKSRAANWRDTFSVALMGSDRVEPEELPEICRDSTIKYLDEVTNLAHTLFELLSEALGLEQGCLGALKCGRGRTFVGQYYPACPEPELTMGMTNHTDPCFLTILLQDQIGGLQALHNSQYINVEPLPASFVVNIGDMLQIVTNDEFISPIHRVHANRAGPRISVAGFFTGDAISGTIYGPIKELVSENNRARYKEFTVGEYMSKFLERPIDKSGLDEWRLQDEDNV

Question: With `CC1=CCCc2c1ccc1c2C(=O)C(=O)C2=C1OCC2C` (stereo not shown) [THT, 1,2,15,16-tetrahydrotanshinone I] as the compound, how does the Km read?
Answer: 20.9 µM
